Values of other authors as cited in patent US20170274058A1, “Cancer Stem Cell-Targeted Cancer Therapy” (priority 2006, published 2017).
Where a name gives a salt, the structure may show the parent alone.

Tested on: cancer stem cells, including leukemia stem cells
Details: background statement, references in Table 1

| Compound | resistance of cancer stem cells to the therapy |
| --- | --- |
| CC(C)C[C@H](NC(=O)[C@H](Cc1ccccc1)NC(=O)c1cnccn1)B(O)O [Velcade®] | relatively resistant |
| COc1cccc2c1C(=O)c1c(O)c3c(c(O)c1C2=O)C[C@@](O)(C(C)=O)C[C@@H]3O[C@H]1C[C@H](N)[C@H](O)[C@H](C)O1 [daunorubicin] | relatively resistant |
| Cc1ccc(NC(=O)c2ccc(CN3CCN(C)CC3)cc2)cc1Nc1nccc(-c2cccnc2)n1 [Gleevec®, imatinib mesylate] | relatively resistant |
| Nc1ccn([C@@H]2O[C@H](CO)[C@@H](O)[C@@H]2O)c(=O)n1 [Ara-C, cytarabine] | relatively resistant |
